# In ChEMBL document CHEMBL1806471, “Identification of 2-(4-pyridyl)thienopyridinones as GSK-3β inhibitors” (Bioorg Med Chem Lett, 2011):
# Legend:
# [1] = biological target: T1, Glycogen synthase kinase-3 beta (Homo sapiens, UniProt P49841); assay: Inhibition of human flag-tagged GSK3-beta expressed in HEK-MSRII cells assessed as CRMP-2 phosphorylation by alphaLISA assay; assay type: cell-based
# [2] = biological target: T1, Glycogen synthase kinase-3 beta; assay: Inhibition of human full length His-tagged GSK3-beta expressed in baculovirus by alphaLISA assay
# [3] = biological target: Cyclin-dependent kinase 2 (Homo sapiens, UniProt P24941); assay: Inhibition of recombinant CDK2 expressed in baculovirus using […] by 33-P leadseeker assay
# [4] = biological target: T1, Glycogen synthase kinase-3 beta; assay: Inhibition of human GSK3-beta expressed in baculovirus by fluorescence polarization assay
# T1 sequence (P49841 whole entry): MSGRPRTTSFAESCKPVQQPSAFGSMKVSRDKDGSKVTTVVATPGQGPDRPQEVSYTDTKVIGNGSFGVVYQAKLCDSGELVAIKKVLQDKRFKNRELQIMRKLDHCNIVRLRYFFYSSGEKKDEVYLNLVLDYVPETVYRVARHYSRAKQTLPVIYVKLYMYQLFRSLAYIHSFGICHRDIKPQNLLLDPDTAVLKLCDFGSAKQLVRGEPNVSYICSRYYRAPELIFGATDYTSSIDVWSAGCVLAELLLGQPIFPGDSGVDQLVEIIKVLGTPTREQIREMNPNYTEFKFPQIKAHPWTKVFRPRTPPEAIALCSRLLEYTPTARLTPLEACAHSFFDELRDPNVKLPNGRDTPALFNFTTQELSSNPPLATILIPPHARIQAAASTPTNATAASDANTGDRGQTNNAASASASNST
Structure (SMILES),IC50 [1],IC50 [2],IC50 [3],IC50 [4]
O=c1[nH]cc(-c2ccc(N3CCOCC3)cc2)c2sc(-c3cn[nH]c3)cc12,0.398 µM,0.0126 µM,0.251 µM,–
O=c1[nH]cc(-c2cccc3cccnc23)c2sc(-c3ccncc3)cc12,7.94 µM,–,12.6 µM,0.316 µM
Cn1cc(-c2ccc(N3CCOCC3)cc2)c2sc(-c3ccncc3)cc2c1=O,> 100 µM,0.251 µM,> 15.8 µM,–
CCOc1ccc(-c2c[nH]c(=O)c3cc(-c4ccncc4)sc23)cn1,3.16 µM,–,6.31 µM,0.126 µM
COCc1ccccc1-c1c[nH]c(=O)c2cc(-c3ccncc3)sc12,3.98 µM,–,5.01 µM,0.1 µM
O=c1[nH]cc(-c2ccc(N3CCOCC3)cc2)c2sc(-c3ccncc3)cc12,1.26 µM,0.0631 µM,15.8 µM,0.501 µM
COc1cc(F)ccc1-c1c[nH]c(=O)c2cc(-c3ccncc3)sc12,5.01 µM,–,5.01 µM,0.158 µM
N#Cc1ccc(F)c(-c2c[nH]c(=O)c3cc(-c4ccncc4)sc23)c1,0.0794 µM,–,0.2 µM,0.00501 µM
O=c1[nH]cc(-c2ccc3c(c2)OCCO3)c2sc(-c3ccncc3)cc12,0.631 µM,–,1.58 µM,0.00631 µM
CS(=O)(=O)Nc1cccc(-c2c[nH]c(=O)c3cc(-c4ccnc5[nH]ccc45)sc23)c1,> 100 µM,0.02 µM,3.16 µM,–
CN(C)C(=O)c1ccccc1-c1c[nH]c(=O)c2cc(-c3ccncc3)sc12,6.31 µM,–,> 15.8 µM,0.316 µM
Cc1cc(-c2cc3c(=O)[nH]cc(-c4cccc(NS(C)(=O)=O)c4)c3s2)ccn1,> 100 µM,–,–,2.51 µM
N#CCc1cccc(-c2c[nH]c(=O)c3cc(-c4ccncc4)sc23)c1,0.631 µM,–,3.98 µM,0.01 µM
O=c1[nH]cc(-c2cccc(Cl)n2)c2sc(-c3ccncc3)cc12,3.98 µM,–,> 15.8 µM,0.01 µM
COc1ncc(-c2ccc(N3CCOCC3)cc2)c2sc(-c3ccncc3)cc12,> 100 µM,10 µM,> 15.8 µM,–
N#Cc1cscc1-c1c[nH]c(=O)c2cc(-c3ccncc3)sc12,0.316 µM,–,0.158 µM,0.0126 µM
